Tested on: P. falciparum Dd2
Assay: Activity against the Dd2 strain of P. falciparum (SYBR Green I, 72 h)
Type: cell-based
Conditions: P. falciparum Dd2, 72 h incubation
Method: The Dd2 strain of P. falciparum was cultured in complete medium (RPMI with L-glutamine, 4.3% heat-inactivated O-positive human serum, 2.08 mg/ml albumax, 0.013 mg/ml hypoxanthine, 1.17 mg/ml glucose, 0.18% NaHCO3, 0.031 M Hepes, 2.60 mM NaOH, and 0.043 mg/ml gentamicin) until the parasitemia reached 3-8%. Parasitemia was determined by checking at least 500 red blood cells from a Giemsa-stained blood smear. The Dd2 cultures along with tested O-positive red blood cells were centrifuged at room temperature at 2,000 rpm for 5 minutes using an Eppendorf centrifuge 5810R with an A-4-81 rotor. The medium was aspirated off. For the compound screening, a parasite dilution at a 1% parasitemia and 1.0% hematocrit was created with screening medium (RPMI with L-glutamine, 4.16 mg/ml albumax II, 0.013 mg/ml hypoxanthine, 1.73 mg/ml glucose, 0.18% NaHCO3, 0.031 M Hepes, 2.60 mM NaOH, and 0.043 mg/ml gentamicin). The suspension was gassed with 93% nitrogen, 4% carbon dioxide, and 3% oxygen and placed at 37° C. until needed. Using a liquid dispenser, 20 μl of screening medium was dispensed into 384-well, black, clear-bottom plates. With a PinTool, 100 nl of compounds dissolved in DMSO was transferred into the assay plates along with control compound (mefloquine). Next, 30 μl of the parasite suspension in screening medium was then dispensed into the assay plates such that the final parasitemia was 1% and the final hematocrit was 1.0%. Final concentration of DMSO was 0.125%. Mefloquine at a final concentration of 20 μM and DMSO at a final concentration of 0.125% were used within the assay plates to serve as background and baseline controls, respectively. The assay plates were transferred to incubators (93% nitrogen, 4% carbon dioxide, and 3% oxygen during the 72 h incubation at 37° C.). Ten microliters of detection reagent consisting of 10×SYBR Green I (Invitrogen; supplied in 10,000× concentration) in lysis buffer (20 mM Tris-HCl, 5 mM EDTA, 0.16% Saponin wt/vol, 1.6% Triton X vol/vol) was dispensed into the assay plates. For optimal staining, the assay plates were left at room temperature for 24 h in the dark. The assay plates were read by using an Envision (PerkinElmer) reader, with 505 dichroic mirrors with 485-nm excitation and 530-nm emission settings, and the plate reads were from the bottom.
By following the above-described protocol, the 50% effective concentration (EC50) for compounds 1-95 was measured against P. falciparum Dd2 and the results are shown in Table 2: […]

EC50 | SMILES
17 nM | O=C(Nc1ccc(F)cc1)N1CCCCN2[C@H](CO)[C@H](c3ccc(C#Cc4ccccc4)cc3)[C@@H]2C1 [Compound 11, (8R,9R,10S)-N-(4-fluorophenyl)-10-(hydroxymethyl)-9-(4-(phenylethynyl)phenyl)-1,6-diazabicyclo[6.2.0] decane-6-carboxamide]

Same assay, conditions: Plasmodium falciparum, DD2, 72 h, P. falciparum Dd2, 72 h incubation

SMILES | EC50
COc1cccc(CN2CCCCN3[C@H](CO)[C@@H](c4ccc(C#Cc5cccnc5)cc4)[C@@H]3C2)c1 [Compound 1, ((8R,9S,10S)-6-(3-methoxybenzyl)-9-(4-(pyridin-3-ylethynyl)phenyl)-1,6-diazabicyclo[6.2.0]decan-10-yl)methanol] | 427 nM
O=C(Nc1ccccc1)N1CCCCN2[C@H](CO)[C@H](c3ccc(C#Cc4cccnc4)cc3)[C@@H]2C1 [Compound 2, (8R,9R,10S)-10-(hydroxymethyl)-N-phenyl-9-(4-(pyridin-3-ylethynyl)phenyl)-1,6-diazabicyclo[6.2.0] decane-6-carboxamide] | 165 nM
COc1ccccc1NC(=O)N1CCCCN2[C@H](CO)[C@H](c3ccc(C#Cc4ccccc4)cc3)[C@@H]2C1 [Compound 3, (8R,9R,10S)-10-(hydroxymethyl)-N-(2-methoxyphenyl)-9-(4-(phenylethynyl)phenyl)-1,6-diazabicyclo[6.2.0] decane-6-carboxamide] | 118 nM
COc1ccc(NC(=O)N2CCCCN3[C@H](CO)[C@H](c4ccc(C#Cc5ccccn5)cc4)[C@@H]3C2)cc1 [Compound 4, (8R,9R,10S)-10-(hydroxymethyl)-N-(4-methoxyphenyl)-9-(4-(pyridin-2-ylethynyl)phenyl)-1,6-diazabicyclo[6.2.0] decane-6-carboxamide] | 131 nM
O=S(=O)(c1ccc(F)cc1)N1CCCCN2[C@@H](CO)[C@@H](c3ccc(C4=CCCCC4)cc3)[C@@H]2C1 [Compound 5, ((8R,9S,10R)-6-((4-fluorophenyl)sulfonyl)-9-(2′,3′,4′,5′-tetrahydro-[1,1′-biphenyl]-4-yl)-1,6-diazabicyclo[6.2.0]decan-10-yl)methanol] | 1070 nM
O=C(Nc1ccccc1)N1CCCCN2[C@@H](CO)[C@H](c3ccc(C#Cc4cccnc4)cc3)[C@@H]2C1 [Compound 6, (8R,9R,10R)-10-(hydroxymethyl)-N-phenyl-9-(4-(pyridin-3-ylethynyl)phenyl)-1,6-diazabicyclo[6.2.0] decane-6-carboxamide] | 552 nM
Cc1cccc(-c2ccc([C@H]3[C@H]4CN(S(=O)(=O)c5cccc(C)c5)CCCCN4[C@H]3CO)cc2)c1 [Compound 7, ((8S,9S,10R)-9-(3′-methyl-[1,1′-biphenyl]-4-yl)-6-(m-tolylsulfonyl)-1,6-diazabicyclo[6.2.0]decan-10-yl)methanol] | 1190 nM
COc1ccc(C#Cc2ccc([C@@H]3[C@@H](CO)N4CCCCN(C(=O)Nc5cccc(F)c5)C[C@H]34)cc2)cc1 [Compound 8, (8S,9S,10S)-N-(3-fluorophenyl)-10-(hydroxymethyl)-9-(4-((4-methoxyphenyl)ethynyl)phenyl)-1,6-diazabicyclo[6.2.0] decane-6-carboxamide] | 83 nM
OC[C@H]1[C@@H](c2ccc(-c3ccc(F)cc3)cc2)[C@@H]2CN(CCC(F)(F)F)CCCCN12 [Compound 9, ((8R,9S,10R)-9-(4′-fluoro-[1,1′-biphenyl]-4-yl)-6-(3,3,3-trifluoropropyl)-1,6-diazabicyclo[6.2.0]decan-10-yl)methanol] | 518 nM
O=C(Nc1ccccc1F)N1CCCCN2[C@@H](CO)[C@H](c3ccc(C#Cc4cccnc4)cc3)[C@@H]2C1 [Compound 10, (8R,9R,10R)-N-(2-fluorophenyl)-10-(hydroxymethyl)-9-(4-(pyridin-3-ylethynyl)phenyl)-1,6-diazabicyclo[6.2.0] decane-6-carboxamide] | 949 nM
O=C(Nc1ccccc1F)N1CCCCN2[C@@H](CO)[C@@H](c3ccc(C#Cc4cccnc4)cc3)[C@@H]2C1 [Compound 12] | 950 nM
O=C(Nc1cccc(F)c1)N1CCCCN2[C@H](CO)[C@H](c3ccc(C#Cc4ccccc4)cc3)[C@@H]2C1 [Compound 13, (8R,9R,10S)-N-(3-fluorophenyl)-10-(hydroxymethyl)-9-(4-(phenylethynyl)phenyl)-1,6-diazabicyclo[6.2.0] decane-6-carboxamide] | 44 nM
COc1ccccc1NC(=O)N1CCCCN2[C@H](CO)[C@H](c3ccc(C#CC4CC4)cc3)[C@H]2C1 [Compound 14, (8S,9R,10S)-9-(4-(cyclopropylethynyl)phenyl)-10-(hydroxymethyl)-N-(2-methoxyphenyl)-1,6-diazabicyclo[6.2.0] decane-6-carboxamide] | 1200 nM

The next lines start with the values.

EC50 | SMILES
254 nM | COc1ccccc1C#Cc1ccc([C@@H]2[C@@H](CO)N3CCCCN(CCC(F)(F)F)C[C@H]23)cc1 [Compound 15, ((8S,9S,10S)-9-(4-((2-methoxyphenyl)ethynyl)phenyl)-6-(3,3,3-trifluoropropyl)-1,6-diazabicyclo[6.2.0]decan-10-yl)methanol]
618 nM | OC[C@H]1[C@@H](c2ccc(-c3cccc(F)c3)cc2)[C@@H]2CN(CCC(F)(F)F)CCCCN12 [Compound 16, ((8R,9S,10R)-9-(3′-fluoro-[1,1′-biphenyl]-4-yl)-6-(3,3,3-trifluoropropyl)-1,6-diazabicyclo[6.2.0]decan-10-yl)methanol]
560 nM | COc1cccc(CN2CCCCN3[C@H](CO)[C@@H](c4ccc(C#Cc5cccnc5)cc4)[C@H]3C2)c1 [Compound 17, ((8S,9S,10S)-6-(3-methoxybenzyl)-9-(4-(pyridin-3-ylethynyl)phenyl)-1,6-diazabicyclo[6.2.0]decan-10-yl)methanol]
800 nM | COc1ccc(C#Cc2ccc([C@@H]3[C@@H](CO)N4CCCCN(C(=O)Nc5ccccc5F)C[C@H]34)cc2)cc1 [Compound 18, (8S,9S,10S)-N-(2-fluorophenyl)-10-(hydroxymethyl)-9-(4-((4-methoxyphenyl)ethynyl)phenyl)-1,6-diazabicyclo[6.2.0] decane-6-carboxamide]
805 nM | CC(C)CC#Cc1ccc([C@@H]2[C@H](CO)N3CCCCN(S(=O)(=O)Cc4ccccc4)C[C@@H]23)cc1 [Compound 19, ((8R,9S,10R)-6-(benzylsulfonyl)-9-(4-(4-methylpent-1-yn-1-yl)phenyl)-1,6-diazabicyclo[6.2.0]decan-10-yl)methanol]
1330 nM | COCC#Cc1ccc([C@@H]2[C@H](CO)N3CCCCN(S(=O)(=O)c4ccc(OC)cc4)C[C@@H]23)cc1 [Compound 20, ((8R,9S,10R)-6-((4-methoxyphenyl)sulfonyl)-9-(4-(3-methoxyprop-1-yn-1-yl)phenyl)-1,6-diazabicyclo[6.2.0]decan-10-yl)methanol]
623 nM | OC[C@@H]1[C@H](c2ccc(-c3ccccc3)cc2)[C@H]2CN(CCC(F)(F)F)CCCCN12 [Compound 21, ((8S,9R,10S)-9-([1,1′-biphenyl]-4-yl)-6-(3,3,3-trifluoropropyl)-1,6-diazabicyclo[6.2.0]decan-10-yl)methanol]
507 nM | O=C(Nc1ccccc1F)N1CCCCN2[C@H](CO)[C@H](c3ccc(C#Cc4cccnc4)cc3)[C@@H]2C1 [Compound 22, (8R,9R,10S)-N-(2-fluorophenyl)-10-(hydroxymethyl)-9-(4-(pyridin-3-ylethynyl)phenyl)-1,6-diazabicyclo[6.2.0] decane-6-carboxamide]
386 nM | COc1ccccc1NC(=O)N1CCCCN2[C@@H](CO)[C@H](c3ccc(C#CC4CCCC4)cc3)[C@@H]2C1 [Compound 23, (8R,9R,10R)-9-(4-(cyclopentylethynyl)phenyl)-10-(hydroxymethyl)-N-(2-methoxyphenyl)-1,6-diazabicyclo[6.2.0] decane-6-carboxamide]
418 nM | COc1ccc(NC(=O)N2CCCCN3[C@H](CO)[C@H](c4ccc(C#CCC(C)C)cc4)[C@@H]3C2)cc1 [Compound 24, (8R,9R,10S)-10-(hydroxymethyl)-N-(4-methoxyphenyl)-9-(4-(4-methylpent-1-yn-1-yl)phenyl)-1,6-diazabicyclo[6.2.0] decane-6-carboxamide]
155 nM | COc1ccc(NC(=O)N2CCCCN3[C@@H](CO)[C@H](c4ccc(C#Cc5ccccn5)cc4)[C@@H]3C2)cc1 [Compound 25, (8R,9R,10R)-10-(hydroxymethyl)-N-(4-methoxyphenyl)-9-(4-(pyridin-2-ylethynyl)phenyl)-1,6-diazabicyclo[6.2.0] decane-6-carboxamide]

— patent US11325913B2, “Compounds and methods for the treatment of malaria” (THE BROAD INSTITUTE, INC., priority 2013, dated 2022)
